What was measured:
[1] = target: T1, High affinity cGMP-specific 3',5'-cyclic phosphodiesterase 9A (Homo sapiens, UniProt O76083); assay: Inhibition of PDE9 (unknown origin) at 10 uM using [3H]-cGMP as substrate after 1 hr by scintillation counting method relative to control
[2] = target: T1, High affinity cGMP-specific 3',5'-cyclic phosphodiesterase 9A; assay: Inhibition of PDE9 (unknown origin) using [3H]-cGMP as substrate after 1 hr by scintillation counting method
[3] = Acidic dissociation constant, pKa of compound at 10 uM by UV/Vis spectroscopy; format: physicochemical
[4] = Basic dissociation constant, pKa of compound at 10 uM by UV/Vis spectroscopy; format: physicochemical

T1 sequence (O76083 whole entry): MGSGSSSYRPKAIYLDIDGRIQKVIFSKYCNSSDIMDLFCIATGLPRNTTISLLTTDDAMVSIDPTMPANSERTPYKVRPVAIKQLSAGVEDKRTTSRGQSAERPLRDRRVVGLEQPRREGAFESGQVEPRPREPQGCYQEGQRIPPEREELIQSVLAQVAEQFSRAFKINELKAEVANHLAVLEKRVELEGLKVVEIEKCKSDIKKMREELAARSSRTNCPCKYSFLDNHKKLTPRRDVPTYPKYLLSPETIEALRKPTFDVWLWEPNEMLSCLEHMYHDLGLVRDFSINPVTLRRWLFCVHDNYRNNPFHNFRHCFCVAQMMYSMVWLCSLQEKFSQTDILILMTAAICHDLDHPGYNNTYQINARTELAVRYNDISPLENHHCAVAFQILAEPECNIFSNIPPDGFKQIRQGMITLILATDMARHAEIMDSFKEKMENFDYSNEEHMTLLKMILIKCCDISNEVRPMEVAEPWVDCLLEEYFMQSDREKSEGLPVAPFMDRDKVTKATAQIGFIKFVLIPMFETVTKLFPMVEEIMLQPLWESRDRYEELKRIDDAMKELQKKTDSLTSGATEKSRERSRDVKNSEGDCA

SMILES	inhibition [1] [%]	IC50 [2] [nM]	further results
Cc1cnc(CN2C[C@@H](C)[C@H](c3nc4c(cnn4C4CCOCC4)c(=O)n3C)C2)cn1	66	–	–
C[C@@H]1CN(Cc2ccc(F)cc2)C[C@H]1c1nc2c(cnn2C2CCOCC2)c(=O)[nH]1	–	17	–
C[C@@H]1CN(Cc2ncccn2)C[C@H]1c1nc2c(cnn2C2CCOCC2)c(=O)[nH]1 [EDELINONTRINE]	–	–	pKa at 10 µM [3]: 9.6; pKa at 10 µM [4]: 6.8
Cc1ncc(CN2C[C@@H](C)[C@](F)(c3nc4c(cnn4C4CCOCC4)c(=O)n3C)C2)cn1	14	–	–
Cc1cnc(CN2C[C@@H](C)[C@H](c3nc4c(cnn4C4CCOCC4)c(=O)[nH]3)C2)cn1	–	59	–
Cc1cnc(CN2C[C@@H](C)[C@](F)(c3nc4c(cnn4C4CCOCC4)c(=O)n3C)C2)cn1	22	–	–
C[C@@H]1CN(Cc2ncccn2)C[C@@]1(F)c1nc2c(cnn2C2CCOCC2)c(=O)[nH]1	–	–	pKa at 10 µM [3]: 8.4; pKa at 10 µM [4]: 5.6
Cc1ncc(CN2C[C@@H](C)[C@H](c3nc4c(cnn4C4CCOCC4)c(=O)[nH]3)C2)cn1	–	36	–

From ChEMBL document CHEMBL4257517, “Elucidation of fluorine's impact on pKa and in vitro Pgp-mediated efflux for a series of PDE9 inhibitors” (Medchemcomm, 2018)
